Experimental data taken from the NIST ThermoML archive (doi:10.1007/s10765-013-1469-0).
Numbers after ± are expanded uncertainties.

Assay: refractive index (Na D-line) (dimensionless); xn = mol fraction of the nth substance listed
Conditions: 101 kPa, Liquid, Standard Abbe refractometry

Compound COCCOCCOCCOCCOC [2,5,8,11,14-pentaoxapentadecane] + CCCCO has a refractive index (288.15 K, x2 = 0) of 1.4345 ± 0.00033, a refractive index (288.15 K, x2 = 0.1013) of 1.43292 ± 0.00033 and a refractive index (288.15 K, x2 = 0.2236) of 1.43083 ± 0.00033. It also gave a refractive index (288.15 K, x2 = 0.3036) of 1.42941 ± 0.00033, a refractive index (288.15 K, x2 = 0.4131) of 1.42694 ± 0.00033 and a refractive index (288.15 K, x2 = 0.5065) of 1.42465 ± 0.00033. The refractive index (288.15 K, x2 = 0.5996) was 1.42188 ± 0.00033, the refractive index (288.15 K, x2 = 0.7007) was 1.41822 ± 0.00033 and the refractive index (288.15 K, x2 = 0.7991) was 1.41381 ± 0.00033. The refractive index (288.15 K, x2 = 0.8996) was 1.40823 ± 0.00033, the refractive index (293.15 K, x2 = 0) was 1.43238 ± 0.00033 and the refractive index (293.15 K, x2 = 0.1013) was 1.43079 ± 0.00033. For the same compound, the refractive index (293.15 K, x2 = 0.2236) was 1.42871 ± 0.00033, the refractive index (293.15 K, x2 = 0.3036) was 1.4273 ± 0.00033 and the refractive index (293.15 K, x2 = 0.4131) was 1.42482 ± 0.00033. It also gave a refractive index (293.15 K, x2 = 0.5065) of 1.42256 ± 0.00033, a refractive index (293.15 K, x2 = 0.5996) of 1.41981 ± 0.00033 and a refractive index (293.15 K, x2 = 0.7007) of 1.41614 ± 0.00033. It also gave a refractive index (293.15 K, x2 = 0.7991) of 1.41175 ± 0.00033, a refractive index (293.15 K, x2 = 0.8996) of 1.40619 ± 0.00033 and a refractive index (298.15 K, x2 = 0) of 1.43027 ± 0.00033. For the same compound, the refractive index (298.15 K, x2 = 0.1013) was 1.42868 ± 0.00033, the refractive index (298.15 K, x2 = 0.2236) was 1.42659 ± 0.00033 and the refractive index (298.15 K, x2 = 0.3036) was 1.42517 ± 0.00033. The refractive index (298.15 K, x2 = 0.4131) was 1.42271 ± 0.00033, the refractive index (298.15 K, x2 = 0.5065) was 1.42044 ± 0.00033 and the refractive index (298.15 K, x2 = 0.5996) was 1.41772 ± 0.00033. The refractive index (298.15 K, x2 = 0.7007) was 1.41408 ± 0.00033, the refractive index (298.15 K, x2 = 0.7991) was 1.40972 ± 0.00033 and the refractive index (298.15 K, x2 = 0.8996) was 1.40418 ± 0.00033. The refractive index (303.15 K, x2 = 0) was 1.42815 ± 0.00033, the refractive index (303.15 K, x2 = 0.1013) was 1.42658 ± 0.00033 and the refractive index (303.15 K, x2 = 0.2236) was 1.42448 ± 0.00033. It also gave a refractive index (303.15 K, x2 = 0.3036) of 1.42306 ± 0.00033, a refractive index (303.15 K, x2 = 0.4131) of 1.42058 ± 0.00033 and a refractive index (303.15 K, x2 = 0.5065) of 1.4183 ± 0.00033. The refractive index (303.15 K, x2 = 0.5996) was 1.41558 ± 0.00033, the refractive index (303.15 K, x2 = 0.7007) was 1.41199 ± 0.00033 and the refractive index (303.15 K, x2 = 0.7991) was 1.40769 ± 0.00033. It also gave a refractive index (303.15 K, x2 = 0.8996) of 1.40216 ± 0.00033, a refractive index (308.15 K, x2 = 0) of 1.42603 ± 0.00033 and a refractive index (308.15 K, x2 = 0.1013) of 1.42448 ± 0.00033. For the same compound, the refractive index (308.15 K, x2 = 0.2236) was 1.42237 ± 0.00033, the refractive index (308.15 K, x2 = 0.3036) was 1.42094 ± 0.00033 and the refractive index (308.15 K, x2 = 0.4131) was 1.41846 ± 0.00033. It also gave a refractive index (308.15 K, x2 = 0.5065) of 1.41616 ± 0.00033, a refractive index (308.15 K, x2 = 0.5996) of 1.41346 ± 0.00033 and a refractive index (308.15 K, x2 = 0.7007) of 1.40985 ± 0.00033. It also gave a refractive index (308.15 K, x2 = 0.7991) of 1.40559 ± 0.00033, a refractive index (308.15 K, x2 = 0.8996) of 1.40005 ± 0.00033 and a refractive index (313.15 K, x2 = 0) of 1.42394 ± 0.00033. It also gave a refractive index (313.15 K, x2 = 0.1013) of 1.42237 ± 0.00033, a refractive index (313.15 K, x2 = 0.2236) of 1.42024 ± 0.00033 and a refractive index (313.15 K, x2 = 0.3036) of 1.41881 ± 0.00033. The refractive index (313.15 K, x2 = 0.4131) was 1.41635 ± 0.00033, the refractive index (313.15 K, x2 = 0.5065) was 1.41403 ± 0.00033 and the refractive index (313.15 K, x2 = 0.5996) was 1.41132 ± 0.00033. For the same compound, the refractive index (313.15 K, x2 = 0.7007) was 1.40775 ± 0.00033, the refractive index (313.15 K, x2 = 0.7991) was 1.40349 ± 0.00033 and the refractive index (313.15 K, x2 = 0.8996) was 1.39795 ± 0.00033. The refractive index (318.15 K, x2 = 0) was 1.42183 ± 0.00033, the refractive index (318.15 K, x2 = 0.1013) was 1.42027 ± 0.00033 and the refractive index (318.15 K, x2 = 0.2236) was 1.41815 ± 0.00033. For the same compound, the refractive index (318.15 K, x2 = 0.3036) was 1.41673 ± 0.00033, the refractive index (318.15 K, x2 = 0.4131) was 1.41424 ± 0.00033 and the refractive index (318.15 K, x2 = 0.5065) was 1.41192 ± 0.00033. For the same compound, the refractive index (318.15 K, x2 = 0.5996) was 1.40924 ± 0.00033, the refractive index (318.15 K, x2 = 0.7007) was 1.40562 ± 0.00033 and the refractive index (318.15 K, x2 = 0.7991) was 1.40133 ± 0.00033. For the same compound, the refractive index (318.15 K, x2 = 0.8996) was 1.39583 ± 0.00033, the refractive index (323.15 K, x2 = 0) was 1.41973 ± 0.00033 and the refractive index (323.15 K, x2 = 0.1013) was 1.41818 ± 0.00033. The refractive index (323.15 K, x2 = 0.2236) was 1.41604 ± 0.00033, the refractive index (323.15 K, x2 = 0.3036) was 1.41461 ± 0.00033 and the refractive index (323.15 K, x2 = 0.4131) was 1.4121 ± 0.00033. For the same compound, the refractive index (323.15 K, x2 = 0.5065) was 1.40977 ± 0.00033, the refractive index (323.15 K, x2 = 0.5996) was 1.40709 ± 0.00033 and the refractive index (323.15 K, x2 = 0.7007) was 1.40351 ± 0.00033. The refractive index (323.15 K, x2 = 0.7991) was 1.39924 ± 0.00033, the refractive index (323.15 K, x2 = 0.8996) was 1.39374 ± 0.00033 and the refractive index (328.15 K, x2 = 0) was 1.41765 ± 0.00033. It also gave a refractive index (328.15 K, x2 = 0.1013) of 1.41611 ± 0.00033, a refractive index (328.15 K, x2 = 0.2236) of 1.41396 ± 0.00033 and a refractive index (328.15 K, x2 = 0.3036) of 1.41251 ± 0.00033. The refractive index (328.15 K, x2 = 0.4131) was 1.40998 ± 0.00033, the refractive index (328.15 K, x2 = 0.5065) was 1.40763 ± 0.00033 and the refractive index (328.15 K, x2 = 0.5996) was 1.40491 ± 0.00033. It also gave a refractive index (328.15 K, x2 = 0.7007) of 1.40133 ± 0.00033, a refractive index (328.15 K, x2 = 0.7991) of 1.39712 ± 0.00033 and a refractive index (328.15 K, x2 = 0.8996) of 1.3916 ± 0.00033. It also gave a refractive index (333.15 K, x2 = 0) of 1.41553 ± 0.00033, a refractive index (333.15 K, x2 = 0.1013) of 1.41403 ± 0.00033 and a refractive index (333.15 K, x2 = 0.2236) of 1.41186 ± 0.00033. It also gave a refractive index (333.15 K, x2 = 0.3036) of 1.4104 ± 0.00033, a refractive index (333.15 K, x2 = 0.4131) of 1.40784 ± 0.00033 and a refractive index (333.15 K, x2 = 0.5065) of 1.40547 ± 0.00033. It also gave a refractive index (333.15 K, x2 = 0.5996) of 1.40273 ± 0.00033, a refractive index (333.15 K, x2 = 0.7007) of 1.39917 ± 0.00033 and a refractive index (333.15 K, x2 = 0.7991) of 1.39497 ± 0.00033. For the same compound, the refractive index (333.15 K, x2 = 0.8996) was 1.38936 ± 0.00033.
